Source: article PMC5390312, “Genetic visualization of protein interactions harnessing liquid phase transitions” (Scientific Reports, 2017)

Molecular target: T1, X-linked inhibitor of apoptosis protein (XIAP) (Homo sapiens, UniProt P98170)
T1 construct: BIR3 domain (XIAP-AG fusion); with Smac N-terminal region (SmacNT-PB1), displaced
Assay: Fluoppi high-content assay in HEK293 cells, Smac/XIAP dissociation
Format: cell-based

T1 sequence (P98170 241-356 limits assumed): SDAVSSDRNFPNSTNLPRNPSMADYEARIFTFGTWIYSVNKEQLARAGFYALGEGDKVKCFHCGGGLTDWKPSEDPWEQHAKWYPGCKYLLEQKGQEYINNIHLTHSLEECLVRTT
T1 sequence (Q9NR28 56-239 partner): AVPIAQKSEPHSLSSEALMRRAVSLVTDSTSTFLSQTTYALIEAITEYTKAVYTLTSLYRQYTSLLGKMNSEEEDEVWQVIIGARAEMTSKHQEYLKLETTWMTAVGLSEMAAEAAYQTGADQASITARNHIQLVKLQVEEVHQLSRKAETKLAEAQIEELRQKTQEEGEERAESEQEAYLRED

- IC50: 9.2 ± 1.2 µM
Structure (SMILES): CN[C@@H](C)C(=O)N[C@H]1CN(C(=O)CC(C)C)CC[C@H]2CC[C@@H](C(=O)NC(c3ccccc3)c3ccccc3)N2C1=O [AT-406]
